# Measured values taken from patent publication US20260376283A1, “A METHOD IMPLEMENTING MORPHOLOGICAL CHANGES OF EXTRACELLULAR ORGANELLE VESICLES SO AS TO EXAMINE THE TRANSPORTING ACTIVITY OF MEMBRANE TRANSPORT PROTEINS AND OTHER RELATED METHODS” (PARIS SCIENCES ET LETTRES, priority 2023, published 2026).
# Entries after “also recorded” stand apart in the source; their conditions may differ. Like-named read-outs stand apart in the source and are kept apart here.
# Tests used:
# [1] = tested on: ion channel TMEM175 localized on lysosomes or endolysosomes vesicles; conditions: cited from earlier work
# [2] = tested on: giant organelles from the ER; assay: Giant organelle formation after pre-treatment of cells (ER); format: cell-based; conditions: pre-treatment between 1 and 90 min before swelling
# Text: (§1) According to a particular embodiment of the first process, prior to the generation of giant extracellular organelle vesicles, cells may be treated with molecules to prevent protein degradation, modulate biochemical reactions on organelles, etc., so that giant extracellular organelle vesicles can bear specific biochemical properties. The metabolic conditions and the architecture of cells and its organelles can thus be further modified before step v), by chemicals and/or by modifying the expression level of proteins impacting the architecture of cells and/or their organelles and/or the metabolic conditions. […] These manipulations enable controlling the size of the recovered giant extracellular organelle vesicles and their contact: tuning the surface-to-volume ratio, prior to the osmotic swelling, impacting the future recovered giant organelle size, with adapted osmotic swelling. […]
# [3] = tested on: giant extracellular organelles vesicles from endosome, lysosome, autolysosome and multivesicular body; assay: Giant organelle formation after pre-treatment of cells (endosome, lysosome, autolysosome, multivesicular body); format: cell-based; conditions: added between 12 to 24 hours before swelling
# Text: as §1
# [4] = tested on: SERCA pump; conditions: role: inhibitor; cited from earlier work
# [5] = tested on: SERCA pump; assay: Screening of candidate compounds modulating SERCA activity by ER vesicle re-swelling (Example 4); format: biochemical; conditions: role: inhibitor; for re-swelling process in presence of inhibitor: thapsigargin 10 μM in DMSO, 10 min, CaCl2 60 mOsm/L, ATP 1 mM / 100 μM, compared to vesicle not incubated
# Protocol: Once the ER extracellular organelle vesicles are extracted, thapsigargin (10 μM) in DMSO, is added to the medium. […] After 10 minutes of incubation with thapsigargin, and once the acquisition is started, the extracellular organelle vesicle, held by the micropipette is passed through an aqueous solution containing CaCl2 (60 mOsm/L) and ATP (1 mM).
# FIG. 6 A) represents an ER extracellular organelle vesicle maintained thanks to a micropipette into a HKM diluted buffer (20 mOsm/L). This extracellular organelle vesicle has been isolated thanks to an ER resident protein, over-expressed by COS7 cells, before organelle vesicles extraction. This extracellular organelle vesicle was incubated with thapsigargin at 10 μM during 10 min.
# At t=0s, CaCl2 (60 mOsm/L) and ATP (100 μM) were added. Dotted line circles all correspond to the size of the extracellular organelle vesicle before the beginning of the process.
# [6] = tested on: giant extracellular organelles vesicles coming from autophagosomes; assay: Giant organelle formation after pre-treatment of cells (autophagosomes); format: cell-based; conditions: added before swelling and extraction
# Text: as §1
# [7] = tested on: ion pump SERCA localized on Endoplasmic Reticulum vesicles; assay: Ca2+ pump transporting activity by morphological change (deflation/re-swelling) of ER extracellular organelle vesicles (Example 1); format: biochemical; conditions: role: substrate
# Protocol: An initial HKM buffer was prepared with 50 mM Hepes (known as 2-[4-(2-hydroxyethyl)piperazin-1-yl]ethanesulfonic acid), 120 mM potassium acetate, and 1 mM MgCl2 (in Milli-Q water) at pH 7.4. Said initial HKM buffer has an osmolarity of 280±15 mOsm/L.
# Then, a membrane tension is applied on cells so as to produce extracellular organelle vesicles without lysing them. At that step, the extracellular organelle vesicles are released (or produced) thanks to the lysis and the removal of the plasma membrane. The membrane tension is carried out by micro-manipulation of the cells under confocal microscope thanks to a micropipette aspiration technique. Micropipette radius is around 1 μm. Thanks to a slight aspiration, a bilayer tongue of the plasma membrane was sucked into the micropipette. The aspiration is then increased at an approximate rate of 10 mbar/min, causing a proportional increase in the bilayer surface tension. At a certain applied tension (e.g. surface tension<0.75 mN/m), the plasma membrane ruptured thanks to a pore opening in the plasma membrane and the extracellular organelle vesicles are released (or extracted).
# After extraction, one or more extracellular organelle vesicles are isolated using a micropipette. The micropipettes are used to hold a vesicle during the following methods of the present invention. Before the addition of molecules (ions, sugars or drug molecules), an acquisition is launched to observe the initial size of the vesicle.
# Once the acquisition is started, the extracellular organelle vesicle, held by the micropipette is passed through an aqueous solution containing CaCl2 (60 mOsm/L) and ATP (100 μM). Contacting calcium ions with said extracellular organelle vesicle increases the osmolarity of the extravesicular aqueous medium. […] This innovative process allows to examine the transporting activity of the ion pump SERCA localized on Endoplasmic Reticulum vesicles.
# FIG. 1 A) represents an extracellular organelle vesicle of endoplasmic reticulum (ER) which is maintained thanks to a micropipette into a HKM diluted buffer (20 mOsm/L) as an extravesicular aqueous medium. This extracellular organelle vesicle has been isolated thanks to an ER resident protein (KDEL), over-expressed by COS7 cells, before organelle vesicles extraction.
# At t=0s, CaCl2 (60 mOsm/L) and ATP (100 μM) were added. At t=20s, the ER extracellular organelle vesicle is deflated: it reached its minimum volume (Vi1) and its associated maximum fluorescence signal (Fl1).
# Once the acquisition is started, the ER extracellular organelle vesicle, held by the micropipette is passed through an aqueous solution containing sucrose (60 mOsm). […] Sucrose can thus be used as a control or reference in the method of the present invention.
# [8] = tested on: ion channel TMEM175 localized on lysosomes or endolysosomes vesicles; assay: K+ ion channel TMEM175 transporting activity by endolysosome vesicle morphological change (Example 8); format: biochemical; conditions: role: substrate, KCl 100 mM inside, 1 mM outside with 200 mM sucrose
# Protocol: Before starting acquisition, extracellular endolysosome vesicles are charged with K^+ ions thanks to a bath sonicator and an extracellular solution (210 mOsm/L) containing 100 mM of KCl and 10 mM of Hepes, pH 7.2. Then, extracellular endolysosome vesicles are seeded on a glass plate for observation. Before starting acquisition, extravesicular aqueous solution is removed to be changed when starting acquisition.
# Once the acquisition is started, the extracellular organelle vesicle, held by the micropipette is passed through an extra-vesicular aqueous solution (200 mOsm/L) containing 1 mM of KCl and 200 mM of sucrose. Contacting very small amount of potassium ions with said extracellular organelle vesicle generates a concentration gradient of K^+ between the inside and the outside of the vesicles. […] This innovative process allows to examine the transporting activity of the ion channel TMEM175 localized on lysosomes or endolysosomes vesicles in absence and/or in presence of an antagonist (4-AP) and/or agonist (DCPIB).
structure (smiles),measurement,setting,value
CCCCC1(C2CCCC2)Cc2cc(OCCCC(=O)O)c(Cl)c(Cl)c2C1=O (stereo not shown) [DCPIB],mode of action on TMEM175,[1]; role: activator,agonist
C/C1=C/C(=O)O[C@@H]2C[C@@H](CC[C@H](C)/C=C\C=C\CC1)O[C@@](O)([C@@H]1CSC(=O)N1)C2 [Latrunculin A],effect on giant organelle formation from the ER,[2],allows the formation of bigger giant organelles from the ER
CO[C@H]1C[C@@H]2CC[C@@H](C)[C@@](O)(O2)C(=O)C(=O)N2CCCC[C@H]2C(=O)O[C@H]([C@H](C)C[C@@H]2CC[C@@H](O)[C@H](OC)C2)CC(=O)[C@H](C)/C=C(\C)[C@@H](O)[C@@H](OC)C(=O)[C@H](C)C[C@H](C)/C=C/C=C/C=C/1C [rapamycin],effect on giant extracellular organelle vesicle formation,[3],allows to form bigger giant extracellular organelles vesicles
C/C=C(/C)C(=O)O[C@H]1C(C)=C2[C@H]([C@@H]1OC(=O)CCCCCCC)[C@@](C)(OC(C)=O)C[C@H](OC(=O)CCC)[C@@]1(O)[C@H]2OC(=O)[C@@]1(C)O [thapsigargin],known activity on the SERCA pump,[4],known inhibitor of the SERCA pump
same,Vf/Vi1 and Vf/Vi versus reference ratio,[5]; reference ratio obtained without thapsigargin,"Vf/Vi1<Vf,ref/Vi1,ref, and Vf/Vi<Vf,ref/Vi,ref"
same,re-swelling process in presence of inhibitor,[5],the reswelling process is decreased or not present
same,re-swelling process in presence of inhibitor,[5]; listed as thaspigargin,the re-swelling process is almost off
same,effect on the transporting activity of SERCA with respect to Ca^2+,"[5]; thapsigargin 10 μM, FIGS. 1 and 6",inhibitory effect
CO/C1=C\C(C)=C\[C@@H](C)[C@@H](O)[C@@H](C)C/C(C)=C/C=C/[C@H](OC)[C@@H]([C@@H](C)[C@@H](O)[C@H](C)C2(O)C[C@@H](O)[C@H](C)[C@@H](C(C)C)O2)OC1=O (stereo partly shown) [bafylomicin],effect on giant extracellular organelle vesicles from autophagosomes,[6],allows to obtain more giant extracellular organelles vesicles coming from autophagosomes
OC[C@H]1O[C@@](CO)(O[C@H]2O[C@H](CO)[C@@H](O)[C@H](O)[C@H]2O)[C@@H](O)[C@@H]1O [sucrose],re-swelling process of vesicle,"[7]; 60 mOsm/L, following minutes, CaCl2 with ATP (100 μM), sucrose as control",no re-swelling is observed; also recorded: no re-swelling process is visible
same,deflation of vesicle on contacting,"[7]; CaCl2 60 mOsm/L with ATP (100 μM), or sucrose 60 mOsm without ATP stated, vesicle internal 20 mOsm/L, COS7 ER vesicle",deflates in a few seconds
same,transport inside the ER extracellular organelle vesicle,"[7]; sucrose 60 mOsm, FIG. 2",not transported inside the ER extracellular organelle vesicle
COC(=O)Nc1nc2ccc(C(=O)c3cccs3)cc2[nH]1 [nocodazole],effect on giant organelle formation from the ER,[2],allows the formation of bigger giant organelles from the ER
[Cl-].[K+] [KCl],deflation of endolysosome vesicle,[8],the vesicle deflates in a few seconds
same,re-swelling process of endolysosome vesicle,[8]; following minutes,a re-swelling process is not observed
Nc1ccncc1 [4-AP],mode of action on TMEM175,[1]; role: inhibitor,antagonist
